Assays:
Experiment in all cases: combination Emax (second highest fraction inhibited in the dose matrix, 72 h); higher = more inhibition; extreme values may be limits of the assay
NB69 (Neuroblastoma) = test system: NB69 (Neuroblastoma)
Summary of the method: (§1)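 Cell lines in DMEM/F12 or RPMI with 10% FBS were plated in 1536-well plates, held 24 hours at 37°C, 5% CO2, then given two-drug dose matrices for 72 hours (DMSO typically 0.2%). Viability was read by CellTiter-Glo 2.0 luminescence and scaled as inhibition from 0 (vehicle wells) to 1 (blank wells). Combination Emax is the second-highest inhibition in the matrix; Bliss excess is observed combination effect minus expected EA + EB − EA·EB, EA and EB being single-agent effects.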

[1] = test system: NCI-H727 (Other Solid Carcinomas)
Summary of the method: as §1

[2] = test system: BT-549 (Breast Carcinoma)
Summary of the method: as §1

[3] = test system: SU8686 (Pancreatic Carcinoma)
Summary of the method: as §1

[4] = test system: MIA-PaCa-2 (Pancreatic Carcinoma)
Summary of the method: as §1

[5] = test system: PANC-04-03 (Pancreatic Carcinoma)
Summary of the method: as §1

[6] = test system: RF-48 (B-Cell Non-Hodgkin's Lymphoma)
Summary of the method: as §1

[7] = test system: EFM-19 (Breast Carcinoma)
Summary of the method: as §1

[8] = test system: KYSE-450 (Esophageal Squamous Cell Carcinoma)
Summary of the method: as §1

D-263MG (Glioblastoma) = test system: D-263MG (Glioblastoma)
Summary of the method: as §1

[9] = test system: HOP-62 (Lung Adenocarcinoma)
Summary of the method: as §1

UACC-62 (Melanoma) = test system: UACC-62 (Melanoma)
Summary of the method: as §1

[10] = test system: OSC-20 (Oral Cavity Carcinoma)
Summary of the method: as §1

[11] = test system: VA-ES-BJ (Other Solid Carcinomas)
Summary of the method: as §1

[12] = test system: Ca9-22 (Head and Neck Carcinoma)
Summary of the method: as §1

TGW (Neuroblastoma) = test system: TGW (Neuroblastoma)
Summary of the method: as §1

[13] = test system: C-4-I (Cervical Carcinoma)
Summary of the method: as §1

ACHN (Kidney Carcinoma) = test system: ACHN (Kidney Carcinoma)
Summary of the method: as §1

[14] = test system: NEC8 (Other Solid Carcinomas)
Summary of the method: as §1

[15] = test system: Hs-766T (Pancreatic Carcinoma)
Summary of the method: as §1

SMILES	combination Emax (NB69 (Neuroblastoma))	combination Emax [1]	combination Emax [2]	combination Emax [3]	combination Emax [4]	combination Emax [5]	combination Emax [6]	combination Emax [7]	combination Emax [8]	combination Emax (D-263MG (Glioblastoma))	combination Emax [9]	combination Emax (UACC-62 (Melanoma))	combination Emax [10]	combination Emax [11]	combination Emax [12]	combination Emax (TGW (Neuroblastoma))	combination Emax [13]	combination Emax (ACHN (Kidney Carcinoma))	combination Emax [14]	combination Emax [15]
COc1cccc(OCCCN)c1-c1cc(Nc2cnc(C#N)cn2)n[nH]1 [Prexasertib] + C[C@@H]1COCCN1C2=NC(=NC(=C2)C3(CC3)[S@](=N)(=O)C)C4=C5C=CNC5=NC=C4 [AZD6738] (first compound max 1 µM, 7x7, partner max 10 µM)	0.91	0.72	0.698	0.531	0.682	0.555	0.71	0.26	0.651	0.797	0.648	0.697	0.575	0.782	0.991	0.968	0.965	0.928	0.983	0.658
COc1cccc(OCCCN)c1-c1cc(Nc2cnc(C#N)cn2)n[nH]1 [Prexasertib] + Cc1cc2ncnn2cc1Nc1ncc2c(n1)n(C1CCOCC1)c(=O)n2C [AZD7648] (first compound max 1 µM, 7x7, partner max 10 µM)	0.906	0.695	0.672	0.528	0.792	0.599	0.725	0.349	0.584	0.835	0.582	0.823	0.599	0.763	1	0.947	0.956	0.935	0.995	0.709
COc1cccc(OCCCN)c1-c1cc(Nc2cnc(C#N)cn2)n[nH]1 [Prexasertib] + O=C(c1cc(Cc2n[nH]c(=O)c3ccccc23)ccc1F)N1CCN(C(=O)C2CC2)CC1 [Olaparib] (first compound max 1 µM, 7x7, partner max 10 µM)	0.896	0.389	0.654	0.527	0.797	0.49	0.726	0.354	0.744	0.762	0.606	0.743	0.648	0.837	0.991	0.915	0.929	0.906	0.968	0.658
CCc1c2c(nc3ccc(O)cc13)-c1cc3c(c(=O)n1C2)COC(=O)[C@]3(O)CC [SN-38] + CN(C)CCCOc1ccc(-c2ccc3ncc4c(c3c2)n(C2CCOCC2)c(=O)n4C)cn1 [AZD0156] (first compound max 0.3 µM, 7x7, partner max 1 µM)	0.995	0.297	0.423	0.497	0.945	0.462	0.801	0.482	0.767	0.722	0.664	0.891	0.716	0.875	0.914	0.62	0.932	0.951	0.99	0.39
Cn1cnc2c(F)c(Nc3ccc(Br)cc3Cl)c(C(=O)NOCCO)cc21 [Selumetinib] + C=CCn1c(=O)c2cnc(Nc3ccc(N4CCN(C)CC4)cc3)nc2n1-c1cccc(C(C)(C)O)n1 [AZD1775] (first compound max 10 µM, partner max 1 µM)	0.944	0.614	0.715	0.126	0.767	0.456	0.489	0.321	0.499	0.218	0.487	0.827	0.27	0.468	0.55	0.566	0.929	0.863	0.628	0.487
Cn1cnc2c(F)c(Nc3ccc(Br)cc3Cl)c(C(=O)NOCCO)cc21 [Selumetinib] + CC(C)n1c(=O)n(C)c2cnc3cc(F)c(-c4ccc(OCCCN5CCCCC5)nc4)cc3c21 [AZD1390] (first compound max 10 µM, 7x7, partner max 0.3 µM)	0.836	0.614	0.117	0.163	0.535	0.418	0.119	0.235	0.0763	0.204	0.409	0.787	0.12	0.129	0.44	0.0418	0.26	0.305	0.0259	0.475
Cn1cnc2c(F)c(Nc3ccc(Br)cc3Cl)c(C(=O)NOCCO)cc21 [Selumetinib] + CCN(CCO)CCCOc1ccc2c(Nc3cc(CC(=O)Nc4cccc(F)c4)[nH]n3)ncnc2c1 [AZD2811] (first compound max 10 µM, 7x7, partner max 1 µM)	0.921	0.622	0.3	0.142	0.657	0.479	0.312	0.219	0.209	0.284	0.475	0.815	0.343	0.327	0.475	0.0777	0.66	0.366	0.0754	0.515
Cn1cnc2c(F)c(Nc3ccc(Br)cc3Cl)c(C(=O)NOCCO)cc21 [Selumetinib] + C[C@@H]1COCCN1C2=NC(=NC(=C2)C3(CC3)[S@](=N)(=O)C)C4=C5C=CNC5=NC=C4 [AZD6738] (first compound max 10 µM, 7x7, partner max 10 µM)	0.999	0.652	0.464	0.113	0.686	0.516	0.371	0.138	0.356	0.359	0.569	0.803	0.295	0.714	0.869	0.577	0.908	0.804	0.764	0.567
CC(=O)Nc1cccc(-n2c(=O)n(C3CC3)c(=O)c3c(Nc4ccc(I)cc4F)n(C)c(=O)c(C)c32)c1 [Trametinib] + Cc1nc(-c2cn3c(n2)-c2ccc(-c4cnn(C(C)(C)C(N)=O)c4)cc2OCC3)n(C(C)C)n1 [Taselisib] (first compound max 1 µM, 7x7, partner max 10 µM)	1	0.988	0.497	0.481	0.887	0.89	0.345	0.665	0.753	0.943	0.778	0.996	0.669	0.687	0.936	0.694	0.94	0.643	0.674	0.773
CC1(C)CCC(CN2CCN(c3ccc(C(=O)NS(=O)(=O)c4ccc(NCC5CCOCC5)c([N+](=O)[O-])c4)c(Oc4cnc5[nH]ccc5c4)c3)CC2)=C(c2ccc(Cl)cc2)C1 [Venetoclax] + C1CN(CCC1(C(=O)N[C@@H](CCO)C2=CC=C(C=C2)Cl)N)C3=NC=NC4=C3C=CN4 [Capivasertib] (first compound max 1 µM, 7x7, partner max 3 µM)	0.426	0.482	0.239	0.059	0.213	0.199	0.364	0.489	0.197	0.202	0.14	0.392	0.265	0.264	0.212	0.465	0.235	0.81	0.174	0.225
CC1(C)CCC(CN2CCN(c3ccc(C(=O)NS(=O)(=O)c4ccc(NCC5CCOCC5)c([N+](=O)[O-])c4)c(Oc4cnc5[nH]ccc5c4)c3)CC2)=C(c2ccc(Cl)cc2)C1 [Venetoclax] + C=CCn1c(=O)c2cnc(Nc3ccc(N4CCN(C)CC4)cc3)nc2n1-c1cccc(C(C)(C)O)n1 [AZD1775] (first compound max 1 µM, partner max 1 µM)	0.849	0.689	0.778	0.107	0.795	0.466	0.667	0.489	0.614	0.808	0.446	0.578	0.253	0.503	0.903	0.846	0.872	0.96	0.42	0.53
CC1(C)CCC(CN2CCN(c3ccc(C(=O)NS(=O)(=O)c4ccc(NCC5CCOCC5)c([N+](=O)[O-])c4)c(Oc4cnc5[nH]ccc5c4)c3)CC2)=C(c2ccc(Cl)cc2)C1 [Venetoclax] + CCN(CCO)CCCOc1ccc2c(Nc3cc(CC(=O)Nc4cccc(F)c4)[nH]n3)ncnc2c1 [AZD2811] (first compound max 1 µM, 7x7, partner max 1 µM)	0.777	0.317	0.336	0.158	0.37	0.196	0.43	0.541	0.27	0.323	0.342	0.28	0.336	0.359	0.236	0.568	0.269	0.739	0.205	0.291
CC1(C)CCC(CN2CCN(c3ccc(C(=O)NS(=O)(=O)c4ccc(NCC5CCOCC5)c([N+](=O)[O-])c4)c(Oc4cnc5[nH]ccc5c4)c3)CC2)=C(c2ccc(Cl)cc2)C1 [Venetoclax] + CN(C)CCCOc1ccc(-c2ccc3ncc4c(c3c2)n(C2CCOCC2)c(=O)n4C)cn1 [AZD0156] (first compound max 1 µM, 7x7, partner max 1 µM)	0.329	0.317	0.179	0.152	0.375	0.18	0.212	0.546	0.15	0.171	0.242	0.487	0.16	0.227	0.48	0.32	0.269	0.78	0.174	0.41

Reference: the supplement of paper PMC11061612
